These are literature values, as cited in US20210189389A1, “METHODS OF MODULATING ANK1” (SOCIETE DES PRODUITS NESTLE S.A., priority 2017, published 2021).

This series concerns ANK1. The following applies: effect on ANK1 expression, from Comparative Toxicogenomics Database and cited reference.
On to `O=C1[O][Pt]2([NH][C@@H]3CCCC[C@H]3[NH]2)[O]C1=O` [oxaliplatin], for which the “Interaction Actions” value is recorded as “decreases expression”.

With Gentamicins, the “Interaction Actions” value is given as “decreases expression”.

In the case of `ClC1=C(Cl)[C@]2(Cl)[C@@H]3[C@@H]4C[C@@H]([C@H]5O[C@@H]45)[C@@H]3[C@@]1(Cl)C2(Cl)Cl` [Dieldrin], the “Interaction Actions” value is given as “decreases expression”.

For `NC(=O)N1c2ccccc2C=Cc2ccccc21` [Carbamazepine], the “Interaction Actions” value was “affects expression”.

Turning to `CC(=O)Nc1ccc(O)cc1` [Acetaminophen], the “Interaction Actions” value is “affects expression”.

In the case of `Brc1c(Br)c(Br)c(Oc2c(Br)c(Br)c(Br)c(Br)c2Br)c(Br)c1Br` [decabromobiphenyl ether], the “Interaction Actions” value was “decreases expression”.

`CCCc1cc(=O)[nH]c(=S)[nH]1` [Propylthiouracil]: the “Interaction Actions” value is “decreases expression”.

With `CCCCc1oc2ccccc2c1C(=O)c1cc(I)c(OCCN(CC)CC)c(I)c1` [Amiodarone], the “Interaction Actions” value is “affects expression”.

For the compound `CCCC(CCC)C(=O)O` [Valproic Acid], the “Interaction Actions” value is recorded as “affects expression”.

For `CN(C)CCCN1c2ccccc2Sc2ccc(Cl)cc21` [Chlorpromazine], the “Interaction Actions” value is reported as “affects expression”.

In the case of `c1ccc2c(c1)cc1ccc3cccc4ccc2c1c34` [Benzo(a)pyrene], the “Interaction Actions” value is on record as “decreases expression”.

`CC(=N)S` [Thioacetamide]: the “Interaction Actions” value is listed as “affects expression”.

Regarding `CC/C(=C(\c1ccccc1)c1ccc(OCCN(C)C)cc1)c1ccccc1` [Tamoxifen], the “Interaction Actions” value is recorded as “affects expression”.

Consider `CC[C@@]1(O)C(=O)OCc2c1cc1n(c2=O)Cc2cc3c(CN(C)C)c(O)ccc3nc2-1` [Topotecan], for which the “Interaction Actions” value is “decreases expression”.
